Values quoted from earlier work as cited in US20080095865A1, “COMPOSITION AND METHOD FOR INCREASING LEAN MUSCLE MASS, DECREASING MUSCLE LOSS, INCREASING MUSCLE STRENGTH AND IMPROVING ATHLETIC PERFORMANCE” (APLODAN FORMULATIONS LTD., priority 2004, published 2008).

Columns and labels:
[1] = supplemented rats
[2] = hamster, in vivo
[3] = as a supplement
[4] = patients with inadequate coronary blood flow
[5] = unaffected in placebo group
[6] = elderly subjects, compared to controls

## O=C(O)CCCC[C@@H]1CCSS1 (stereo in doubt) [Alpha Lipoic Acid, 1,2-dithiolane-3-pentanoic acid]
diabetics
  increase of metabolic clearance rate of glucose: 50%
Type II diabetics
  body's utilization of blood sugar: significantly increase
[1]
  age-related changes in mitochondrial function, accumulated oxidative damage and metabolic rate: improved
[2]
  high-density lipoproteins: beneficial increase in high-density lipoproteins

## CN(CCOP(=O)(O)O)C(=N)N [Creatinol O-Phosphate]
[3]
  tolerance and side effects: well tolerated and without side effects
[4]
  cardiac parameters: successfully used to improve cardiac parameters
[5]
  hand-grip strength: improved
[6]
  muscular performance: improved muscular performance as compared to controls
